Like-named read-outs stand apart in the source and are kept apart here.

Series [1] concerns the target T1, human Sigma-1 receptor (S1R) (Homo sapiens, UniProt Q99720).
T1 construct: expressed in transfected cells
Nature of the series: Radioligand competition binding at Sigma-1 receptor ([3H]-(+)-pentazocine, MCF-7-hS1R). The protocol: Measuring receptor density with radioligand binding.
Measuring the ligand affinities at SIR and S2R receptors by radioligand binding. […] Binding conditions were the same as described previously for the S1R (Schetz, et al., 2007): binding buffer (Tris 50 mM, pH=8.1 at 37° C.), ice-cold wash buffer (Tris 10 mM, pH=8.1 at 0-2° C.), and incubation time (3 hrs at 37° C.) with shaking. Non-specific binding for the S1R and S2R was determined in the presence of 5 μM BD1063 and […] haloperidol, respectively. Following incubation, receptors were collected via rapid filtration through GF/C filters (Brandel, Gaithersburg, MD) followed by washing three times with 3 mL of ice-cold wash buffer. Dried filters were transferred to vials filled with 3.5 ml of scintillation fluid, and the radioactivity was quantified on a liquid scintillation analyzer (TRICARB® 2800TR) from Perkin Elmer (Saint Louis, MO). Mean values from duplicate or triplicate determinations are reported along with their associated standard error of the mean (SEM). Ki values were calculated from IC50 values using the Cheng-Prusoff equation. The concentration of membrane protein was determined using a PIERCE® BCA Protein Assay kit (Life Technologies, Grand Island, NY) following the manufacturer's protocol.
Referring to FIG. 1, the selectivity of potential S1R ligands over S2R was empirically evaluated. Human MCF-7 cells were used as the source of the S2R because these cells express the endogenous S2R (Vilner, John, et al., 1995; Wu & Bowen, 2008) but lack detectable levels of the S1R, allowing unambiguous detection of S2R activity in untransfected cells (Schetz, et al., 2007). MCF-7 cells stably expressing the cloned human S1R were used as the source of S1R.
On the technique in general: Loss of bound radioactivity is the signal in a displacement assay; it reports binding, not function.

For the next series, the system named is rat blood. Nature of the series: Clotting (streak) assay of thrombotic potential. The protocol:
Clotting assays. Thrombotic potential was assessed with trunk blood from donor rats using a protocol modified from Kim et al. (Kim et al., 2010). Oxeladin was compared to whole blood with or without the anticoagulant benzamidine and several other S1R ligands at doses 10× greater than those that stimulate the release of BDNF (Dalwadi et al., 2022; Dalwadi et al., 2017). Blood was rapidly collected into chilled, pre-weighed plastic tubes containing a known quality of EDTA disodium salt (>3.7 mM) electrostatically-coated onto the tube wall. Blood was prevented from coagulating by gently swirling the chilled EDTA-coated tube. The tube was weighed and the volume of collected blood calculated in order to compute the exact concentration of EDTA in the uncoagulated blood sample allowing us to determine which concentration of calcium to add back into the blood to initiate coagulation. Uncoagulated blood samples were stored chilled. The following was be dispensed into NUNC™ MICROWELL™ MiniTrays: 8 μL/well of normal saline containing a concentration of calcium 1.2 mM higher than that of the concentration of EDTA in the blood sample, 1 μL/well of oxeladin, 3 mM benzamidine anticoagulant positive control, or untreated or vehicle negative controls, and 1 μL/well of (EDTA-treated) uncoagulated rat blood. Plates were tilted at a 45° angle at 5, 15, 30, 45 and 60 minutes to observe coagulation (i.e., no streaking) and compared to the controls. Each triplicate well was scored by a treatment-blinded observer as Yes (coagulation, no streaking) or No (no coagulation, streaking). The experiment was repeated with two separate donor rats.
Referring to FIG. 5, the effect on thrombotic activity of test drugs, benzamidine anticoagulant positive control, or untreated or vehicle negative controls on whole blood from donor rats was assessed by tilting treated blood samples at a […] to observe coagulation (i.e., no streaking) between […] (top panel). Blood coagulation was represented by a value between 1 (no streaking, coagulation) and 0 (streaking, less or no coagulation), and values were assigned for each test drug, benzamidine, and untreated and vehicle controls (bottom panel). Quantitative results from these clotting assays, including coagulation half-life, are summarized below in Table 5.

Another series concerns neuronal MN9D cell line. The experiment in a line: BDNF secretion via in situ ELISA. Conditions: MN9D cells; for Efficacy of BDNF secretion: 24 hrs, normalized to maximal response of 10 μM 4-PPBP, mean ± SEM, asterisk = significantly different from 4-PPBP. Format: cell-based. The text has this: Measuring BDNF secretion via in situ ELISA. […] The in situ ELISA improves on traditional ELISA by seeding BDNF-secreting cells directly into the wells pre-coated with an anti-BDNF primary antibody. BDNF secreted by these cells is immediately captured by the primary antibody, drastically increasing the sensitivity and reproducibility of the ELISA assay. Intact cells are removed […] the addition of the secondary and tertiary antibodies. The amount of BDNF secreted from the neuronal MN9D cells was quantified using an in situ ELISA assay developed using the BDNF EMAX® ImmunoAssay kit (Cat. No. G7611, Promega, Madison, WI). Briefly, a NUNC™ MAXISORP™ flat-bottom, polystyrene, 96-well immunoplate was coated for 48 hrs at 4° C. with an anti-BDNF monoclonal antibody diluted 1:1000 v/v in carbonate buffer containing 25 mM sodium bicarbonate and 25 mM sodium carbonate, pH 9.7. Unbound antibody was removed by washing 5 times with 150 μL of TBST buffer (20 mM Tris-HCl, pH7.6, 150 mM NaCl, and 0.05% (v/v) TWEEN® 20), before blocking non-specific sites first with blocking buffer for 1 hr and then with culture medium for 2 hrs. Cells were seeded at 35,000 cells per well and incubated overnight at 37° C. in a humidified CO2 incubator. The following day, the wells were replaced with fresh culture media containing either experimental compounds or vehicle controls, then incubated for an additional 24 hours. In addition, on the same plate, but in separate wells, BDNF standards were added ranging in concentration from 15.6-250 pg/mL. After 24 hrs incubation with experimental compounds, the media was aspirated and 100 μL of Dulbecco's phosphate saline (D-PBS without Ca^2+ and Mg^2+ supplemented with 5 mM EDTA) was added to each well and incubated for 15 min at 37° C. to promote cell lifting. Cells were then detached from the bottom of wells by triturating in the center and around the edges of the well. After removing all cell debris, the wells were rinsed five times with 150 μL of TBST. The plate was then incubated with 1:500 v/v diluted polyclonal anti-human BDNF antibody for 2 hrs at room temperature. This antibody was removed, and wells were washed five times with 150 μL of TBST, before incubating with 1:200 v/v diluted polyclonal Anti-IgY HRP conjugate for 2 hrs at room temperature. Wells were then washed five times with 150 μL of TBST and the remaining specifically bound polyclonal antibody was detected with the 50 μL colorimetric HRP substrate 3,3′,5,5′-Tetramethylbenzidine (TMB). The reaction was terminated with 50 μL of 1 M HCl and the color intensity was quantified by measuring the absorbance at 450 nm using a FLEXSTATION® 3 plate reader (Molecular Devices, Sunnyvale, CA). […] A one-way ANOVA with a Bonferroni multiple comparisons post-hoc analysis (P<0.05) was applied to determine significant differences between groups.
Further, BDNF secreted from MN9D cells can be detected 24 hours after treatment with S1R ligand, whereas BDNF secreted from the B104 cell line takes 7 days to be detected (Fujimoto, et al., 2012).
An in situ ELISA approach was utilized because of its improved sensitivity related to its rapid capture of secreted BDNF (Balkowiec & Katz, 2000; Dalwadi, et al., 2017). […] Values are averages of 2-10 experiments±SEM, and each experiment was performed in triplicate. Statistical significance at P<0.05 was determined by ANOVA followed by a Bonferroni's post-hoc test and are marked with an asterisk.
On the technique in general: ELISA stands for enzyme-linked immunosorbent assay.

Where [2] appears, read: displacement of 0.5 nM [3H]-(+)-pentazocine, MCF-7 cells expressing human S1R, average of 2-3 experiments ± SEM, read-out: S1R affinity (Ki).

T1 sequence (Q99720 whole entry): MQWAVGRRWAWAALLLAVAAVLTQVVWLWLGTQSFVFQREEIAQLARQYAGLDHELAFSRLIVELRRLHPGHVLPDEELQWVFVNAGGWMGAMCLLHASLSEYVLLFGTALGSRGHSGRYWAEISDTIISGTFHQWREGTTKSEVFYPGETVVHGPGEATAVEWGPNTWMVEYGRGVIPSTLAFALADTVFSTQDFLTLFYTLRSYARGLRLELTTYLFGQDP

`CCN(CC)CCOCCOC(=O)C1(c2ccccc2)CCCC1` [Carbetapentane]: the Ki in series [1] (setting [2]) stood at 19.8 ± 2.3 nM. The “Coagulation Half-Life (λ1/2 ± SD)” value with rat blood (rat) came to 23 ± 18 min. The “Efficacy of BDNF secretion” value in the series with neuronal MN9D cell line (10 μM) is recorded as 0.73 ± 0.05.

For `Cc1c(C2CCN(CCc3ccccc3)CC2)noc1-c1ccc(Cl)cc1` [L-741, 742], the “Coagulation Half-Life (λ1/2 ± SD)” value with rat blood (rat) was determined as 11 ± 6 min.

Regarding `CN1CCN(CCc2ccc(Cl)c(Cl)c2)CC1` [BD1063], the “reversal of S1R agonist-induced BDNF secretion” value with neuronal MN9D cell line (15 nM antagonist) was “reversed”.

As to `c1ccc(CCCCN2CCC(c3ccccc3)CC2)cc1` [4-PPBP], the “Coagulation Half-Life (λ1/2 ± SD)” value with rat blood (100 μM, rat blood) worked out at 11 ± 6 min. The “Efficacy of BDNF secretion” value in the series on neuronal MN9D cell line (10 μM) is given as 1. In addition, in the series on neuronal MN9D cell line (10 μM, averaged ± SEM, n=3-10, baseline 75.4±6.9), the “BDNF secreted, maximal stimulation” value was found to be 128.6 ± 12.8 pg/mL.

Consider `OC(CCCN1CCC(O)(c2ccc(Cl)cc2)CC1)c1ccc(F)cc1` (stereo not drawn) [Haloperidol Metabolite II], for which, in the series on rat blood (100 μM, rat blood), the “Coagulation Half-Life (λ1/2 ± SD)” value was 14 ± 11 min.

`CC(CN1c2ccccc2Sc2ccccc21)N(C)C` (stereo not drawn) [Promethazine]: in series [1], the “selective for S1R over S2R” value was 5 fold. The Ki in series [1] (receptor not given, S1R implied, read-out: affinity) was determined as 157 nM. Further, the “effect on thrombosis in blood” value in the series with rat blood is “do not alter thrombosis”. For the same molecule, the “Efficacy of BDNF secretion” value in the series with neuronal MN9D cell line (10 μM) is recorded as 1.09 ± 0.34.

On to `CCC(C(=O)OCCOCCN(CC)CC)c1ccccc1` (stereo not drawn) [Butamirate], for which, in series [1], the “selective for S1R over S2R” value worked out at 10 fold. For the same molecule, the Ki in series [1] (setting [2]) stood at 17.2 ± 1.7 nM. For the same molecule, in series [1] (selectivity for S1R over S2R), the “S2R/S1R ratio (Ki S2R/Ki S1R)” value turned out to be 10. Also, in the series on neuronal MN9D cell line (10 μM), the “stimulation of BDNF secretion” value is given as “With the exception of butamirate, all compounds were able to stimulate BDNF release”.

In the case of `O=C(OCCN1CCOCC1)C1(c2ccccc2)CCCCC1` [PRE-084], the “stimulation of BDNF secretion” value in the series on neuronal MN9D cell line (10 μM) is reported as “failed to stimulate BDNF secretion”.

With `N=C(N)c1ccccc1` [Benzamidine], the “Coagulation Half-Life (λ1/2 ± SD)” value in the series on rat blood (3000 μM, rat blood, positive control) is given as >1,440 minutes; in the series with rat blood (3000 μM, rat blood, positive control, listed as positive control), > 1,440 minutes.

As to `COc1ccc(CCN2CCN(CCCc3ccccc3)CC2)cc1OC` [SA4503], the “Coagulation Half-Life (λ1/2 ± SD)” value with rat blood (rat) was 11 ± 6 min.

In the case of `Clc1ccc(N2CCN(Cc3c[nH]c4ncccc34)CC2)cc1` [L-745, 870], in the series on rat blood (rat), the “Coagulation Half-Life (λ1/2 ± SD)” value was found to be 11 ± 6 min.

Consider `CCC(C/C=C/c1ccccc1)(c1ccccc1)N(C)CC1CC1` (single isomer, unassigned; (+)) [(+)-igmesine], for which, in the series with rat blood (rat), the “Coagulation Half-Life (λ1/2 ± SD)” value turned out to be 19 ± 16 min. Further, in the series with neuronal MN9D cell line (10 μM), the “Efficacy of BDNF secretion” value was 0.42 ± 0.03.

The values are drawn from patent US20250134902A1, “DRUG REPURPOSING FOR DELAYED TREATMENT OF ISCHEMIC STROKE” (UNIVESRITY OF NORTH TEXAS HEALTH SCIENCE CENTER, priority 2022, published 2025).
